The results in this text go back to patent US9079919B2 (HOFFMANN-LA ROCHE INC., priority 2011, dated 2015).

Structures can show the parent of a compound that is named as a salt.

What all share (format): cell-based
Assay [1] concerns the target T1, BACE1 (Homo sapiens, UniProt P56817).
T1 construct: Human HEK293 cells which are stably transfected with a vector expressing a cDNA of the human APP wt gene (APP695); endogenous in cells; host or cells: HEK293 cells stably transfected with human APP695 (wt)
Description: Cellular Aβ-lowering assay b) (Abeta 40 AlphaLISA Assay). As to conditions: cellular assay b): HEK293 APP cells, Aβ40 in supernatant by AlphaLISA after 18-20 hrs; read-out: BACE1 cell act. Aβ40 IC50. The protocol: b) Alternatively, the Abeta 40 AlphaLISA Assay can be used. The HEK293 APP cells were seeded in 96 well Microtiter plates in cell culture medium (Iscove's, plus 10% (v/v) fetal bovine serum, penicillin/streptomycin) to about 80% confluency and the compounds were added at a 3× concentration in 1/3 volume of culture medium (final DMSO concentration was kept at 1% v/v). After 18-20 hrs incubation at 37° C. and 5% CO2 in a humidified incubator, the culture supernatants were harvested for the determination of Aβ 40 concentrations using Perkin-Elmer Human Amyloid beta 1-40 (high specificity) Kit (Cat#AL275C).
In a Perkin-Elmer White Optiplate-384 (Cat#6007290), 2 ul culture supernatants were combined with 2 μl of a 10× AlphaLISA Anti-hAβ Acceptor beads+Biotinylated Antibody Anti-Aβ 1-40 Mix (50 μg/mL/5 nM). After 1 hour room temperature incubation, 16 μl of a 1.25× preparation of Streptavidin (SA) Donor beads (25 μg/mL) were added and incubated for 30 minutes in the Dark. Light Emission at 615 nm was then recorded using EnVision-Alpha Reader. Levels of Aβ 40 in the culture supernatants were calculated as percentage of maximum signal (cells treated with 1% DMSO without inhibitor). The IC50 values were calculated using the Excel XLfit software.
For orientation: Bead proximity is the source of the signal in Alpha formats.

The target of assay [2] is T1, BACE1. Description: Cellular Aβ-lowering assay a) (Aβ40 ELISA). To be noted: cellular assay a): HEK293 cells expressing human APP695, Aβ40 in supernatant by ELISA after 18-20 hrs; read-out: BACE1 cell act. Aβ40 IC50. The protocol:
a) Human HEK293 cells which are stably transfected with a vector expressing a cDNA of the human APP wt gene (APP695) were used to assess the potency of the compounds in a cellular assay. The cells were seeded in 96-well microtiter plates in cell culture medium (Iscove, plus 10% (v/v) fetal bovine serum, glutamine, penicillin/streptomycin) to about 80% confluence and the compounds were added at a 10× concentration in 1/10 volume of medium without FCS containing 8% DMSO (final concentration of DMSO was kept at 0.8% v/v). After 18-20 hrs incubation at 37° C. and 5% CO2 in a humidified incubator the culture supernatant was harvested for the determination of Aβ40 concentrations. 96 well ELISA plates (e.g., Nunc MaxiSorb) were coated with monoclonal antibody which specifically recognize the C-terminal end of Aβ40 (Brockhaus et al., NeuroReport 9, 1481-1486; 1998). After blocking of non-specific binding sites with e.g. 1% BSA and washing, the culture supernatants were added in suitable dilutions together with a horseradish peroxidase-coupled Aβ detection antibody (e.g., antibody 4G8, Senetek, Maryland Heights, Mo.) and incubated for 5 to 7 hrs. Subsequently the wells of the microtiter plate were washed extensively with Tris-buffered saline containing 0.05% Tween 20 and the assay was developed with tetramethylbenzidine/H2O2 in citric acid buffer. After stopping the reaction with one volume of 1N H2SO4 the reaction was measured in an ELISA reader at 450 nm wavelength. The concentrations of Aβ in the culture supernatants were calculated from a standard curve obtained with known amounts of pure Aβ peptide.

Another assay has as its target T2, BACE2 (Rattus norvegicus, UniProt Q6IE75).
T2 construct: endogenous cellular BACE2 in the Ins1e rat cell line; endogenous in cells; host or cells: INS-TMEM27 (INS1e-derived rat cell line with doxycycline-inducible full-length human TMEM27)
T2 sequence (Q6IE75 63-514): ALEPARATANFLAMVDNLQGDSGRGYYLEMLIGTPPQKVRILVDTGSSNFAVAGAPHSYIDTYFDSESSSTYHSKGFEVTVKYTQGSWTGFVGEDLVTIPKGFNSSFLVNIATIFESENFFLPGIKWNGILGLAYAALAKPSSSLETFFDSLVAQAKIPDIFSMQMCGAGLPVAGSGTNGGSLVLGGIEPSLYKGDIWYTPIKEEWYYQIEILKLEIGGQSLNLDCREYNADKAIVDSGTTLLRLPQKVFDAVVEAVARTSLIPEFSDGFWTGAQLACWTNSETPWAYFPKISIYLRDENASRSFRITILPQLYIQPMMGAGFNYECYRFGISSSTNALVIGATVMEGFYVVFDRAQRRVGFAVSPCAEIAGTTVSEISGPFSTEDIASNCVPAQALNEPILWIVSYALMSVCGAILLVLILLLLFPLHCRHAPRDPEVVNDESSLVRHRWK
Description: Assay for BACE inhibition by measuring cellular TMEM27 cleavage. As to conditions: INS-TMEM27 cells (INS1e-derived), shed human TMEM27 by ELISA; read-out: BACE2 cell act. IC50. The source says: The assay uses the principle of inhibition of human TMEM27 cleavage by endogenous cellular BACE2 in the Ins1e rat cell line and shedding from the cell surface into the culture medium, followed by detection in an ELISA assay. Inhibition of BACE2 prevents the cleavage and shedding in a dose-dependent manner.
The stable cell line “INS-TMEM27” represents an INS1e-derived cell line with inducible expression (using the TetOn system) of full-length hTMEM27 in a doxycycline-dependent manner. The cells are cultured throughout the experiment in RPMI1640+ Glutamax (Invitrogen) Penicillin/Streptomycin, 10% Fetal bovine serum, […], […], 100 micrograms/ml G418 and 100 microgram/ml hygromycin and are grown inadherent culture at 37° C. in a standard CO2 cell culture incubator.
INS-TMEM27 cells are seeded in 96-well plates. After 2 days in culture, BACE2 inhibitor is added in a range of concentrations as required by the assay and after a further two hours, doxycycline is added to a final concentration of 500 ng/ml. The cells are incubated for a further 46 hours and the supernatant harvested for detection of shed TMEM27.
An ELISA assay (using a pair of mouse anti-human-TMEM27 antibodies, raised against the extracellular domain of TMEM27) is used for detection of TMEM27 in the culture medium. An EC50 for BACE2 inhibition is calculated using the ELISA readout for each inhibitor concentration with standard curve-fitting software such as XLFit for the Excel spreadsheet program.
In general terms: ELISA stands for enzyme-linked immunosorbent assay.

T1 sequence (P56817 46-501): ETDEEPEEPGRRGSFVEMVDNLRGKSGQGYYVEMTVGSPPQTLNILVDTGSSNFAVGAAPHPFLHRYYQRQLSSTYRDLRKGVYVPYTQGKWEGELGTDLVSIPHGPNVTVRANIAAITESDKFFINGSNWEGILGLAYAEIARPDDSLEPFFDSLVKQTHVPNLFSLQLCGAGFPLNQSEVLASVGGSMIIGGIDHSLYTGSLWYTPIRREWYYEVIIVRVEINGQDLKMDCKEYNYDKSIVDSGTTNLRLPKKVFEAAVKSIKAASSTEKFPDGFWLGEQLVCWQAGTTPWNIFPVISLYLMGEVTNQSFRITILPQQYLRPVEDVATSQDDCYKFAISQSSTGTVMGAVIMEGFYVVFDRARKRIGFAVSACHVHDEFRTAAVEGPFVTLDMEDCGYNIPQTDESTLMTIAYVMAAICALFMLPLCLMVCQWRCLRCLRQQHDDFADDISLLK

In the case of `N#Cc1cccc(-c2ccc3c(c2)[C@@]2(C[C@@]4(CCCOC4)O3)N=C(N)OCC2(F)F)c1` [Example 30, 3-[(2′R,4R)-2-Amino-5,5-difluoro-5,5″,6,6″-tetrahydro-4″H-dispiro[1,3-oxazine-4,4′-chromene-2′,3″-pyran]-6′-yl]benzonitrile formate], at BACE1 [1], the IC50 was found to be 6580 nM.
With `N#Cc1cncc(-c2ccc3c(c2)[C@@]2(CC3)N=C(N)OCC2(F)F)c1` [Example 11, (R)-5-(2′-Amino-5′,5′-difluoro-2,3,5′,6′-tetrahydrospiro[indene-1,4′-[1,3]oxazine]-6-yl)nicotinonitrile], on BACE1 [1], the IC50 is 3380 nM.
As to `NC1=N[C@@]2(CCc3ccc(-c4cc(Cl)cc(Cl)c4)cc32)C(F)(F)CO1` [Example 8, (R)-6-(3,5-Dichlorophenyl)-5′,5′-difluoro-2,3,5′,6′-tetrahydrospiro[indene-1,4′-[1,3]oxazin]-2′-amine], the values for the concentration for half-maximal inhibition (IC50) at BACE1 [2] and at BACE2 were 2450 nM and 2730 nM, respectively.
Taken in the same sequence, the figures for `NC1=N[C@@]2(CCSc3ccc(NC(=O)c4ccc(Cl)cn4)cc32)C(F)(F)CO1` [Example 42, (R)—N-(2-Amino-5,5-difluoro-5,6-dihydrospiro[[1,3]oxazine-4,4′-thiochroman]-6′-yl)-5-chloropicolinamide] were 35 nM and 438 nM.
On to `N#Cc1cncc(-c2ccc3c(c2)[C@@]2(CCC3)N=C(N)OCC2(F)F)c1` [Example 2, (R)-5-(2′-Amino-5′,5′-difluoro-3,4,5′,6′-tetrahydro-2H-spiro[naphthalene-1,4′-[1,3]oxazine]-7-yl)nicotinonitrile], for which the IC50 is 80 nM on BACE1 [2] and 526 nM on BACE2.
Take `NC1=N[C@@]2(C[C@@]3(CCCOC3)Oc3ccc(-c4cncc(Cl)c4)cc32)C(F)(F)CO1` [Example 29, (2′R,4R)-6′-(5-Chloropyridin-3-yl)-5,5-difluoro-5,5″,6,6″-tetrahydro-4″H-dispiro[1,3-oxazine-4,4′-chromene-2′,3″-pyran]-2-amine formate]: the IC50 at BACE1 [1] was 4430 nM.
For `N#Cc1ccc(C(=O)Nc2ccc3c(c2)[C@@]2(CCO3)N=C(N)OCC2(F)F)nc1` [Example 34, (R)—N-(2′-Amino-5′,5′-difluoro-5′,6′-dihydrospiro[chroman-4,4′-[1,3]oxazine]-6-yl)-5-cyanopicolinamide], the values for the IC50 at BACE1 [2] and on BACE2 were 80 nM and 1920 nM, respectively.
Taken in the same sequence, the figures for `NC1=N[C@@]2(CCOc3ccc(-c4cncc(Cl)c4)cc32)C(F)(F)CO1` [Example 19, (R)-6-(5-Chloropyridin-3-yl)-5′,5′-difluoro-5′,6′-dihydrospiro[chroman-4,4′-[1,3]oxazin]-2′-amine] were 380 nM and 124 nM.
`N#Cc1ccc(C(=O)Nc2ccc3c(c2)[C@@]2(C[C@@]4(CCCOC4)O3)N=C(N)OCC2(F)F)nc1` [Example 44, N-[(2′R,4R)-2-Amino-5,5-difluoro-5,5″,6,6″-tetrahydro-4″H-dispiro[1,3-oxazine-4,4′-chromene-2′,3″-pyran]-6′-yl]-5-cyanopyridine-2-carboxamide]: the IC50 at BACE1 [1] worked out at 5170 nM.
On to `NC1=N[C@@]2(CCOc3ccc(NC(=O)c4ncc(Cl)cc4Cl)cc32)C(F)(F)COC1` [Example 51, (R)—N-(3′-Amino-6′,6′-difluoro-6′,7′-dihydro-2′H-spiro[chroman-4,5′-[1,4]oxazepine]-6-yl)-3,5-dichloropicolinamido], for which the IC50 at BACE1 [2] is 1690 nM; on BACE2 it was 5870 nM.
`NC1=N[C@@]2(C[C@]3(CCCOC3)Oc3ccc(-c4cncc(Cl)c4)cc32)C(F)(F)CO1` [Example 31, (2′S,4R)-6′-(5-Chloropyridin-3-yl)-5,5-difluoro-5,5″,6,6″-tetrahydro-4″H-dispiro[1,3-oxazine-4,4′-chromene-2′,3″-pyran]-2-amine formate]: the IC50 on BACE1 [1] was 9000 nM.

As a reminder, the IC50 is the concentration at which inhibition is half-maximal.
